IC50 data for 79 compounds are collected here from patent publication US20070037752A1, “Novel alanyl-amino peptidase inhibitors for functionally influencing different cells and treating immunological, inflammatory, neuronal, and other diseases” (priority 2003, published 2007).

The structures appear in SMILES notation.

The first assay deals with alanyl aminopeptidases (APN) (Homo sapiens, UniProt P15144). Briefly: Inhibition of alanyl aminopeptidase enzymatic activity, fluorogenic substrate (Ala)2-rhodamine 110. It counts as biochemical. Conditions: Table 1, unstarred values; read-out: IC50APN. On the procedure: The inhibition characteristics measured are referred to as IC-50 values or ID50 values (the latter marked with “*”) for said enzyme. The enzymatic activity was determined by means of the fluorogenic substrate/product (Ala)2-rhodamine 110.
Sequence of alanyl aminopeptidases (APN) (P15144 whole entry, species assumed): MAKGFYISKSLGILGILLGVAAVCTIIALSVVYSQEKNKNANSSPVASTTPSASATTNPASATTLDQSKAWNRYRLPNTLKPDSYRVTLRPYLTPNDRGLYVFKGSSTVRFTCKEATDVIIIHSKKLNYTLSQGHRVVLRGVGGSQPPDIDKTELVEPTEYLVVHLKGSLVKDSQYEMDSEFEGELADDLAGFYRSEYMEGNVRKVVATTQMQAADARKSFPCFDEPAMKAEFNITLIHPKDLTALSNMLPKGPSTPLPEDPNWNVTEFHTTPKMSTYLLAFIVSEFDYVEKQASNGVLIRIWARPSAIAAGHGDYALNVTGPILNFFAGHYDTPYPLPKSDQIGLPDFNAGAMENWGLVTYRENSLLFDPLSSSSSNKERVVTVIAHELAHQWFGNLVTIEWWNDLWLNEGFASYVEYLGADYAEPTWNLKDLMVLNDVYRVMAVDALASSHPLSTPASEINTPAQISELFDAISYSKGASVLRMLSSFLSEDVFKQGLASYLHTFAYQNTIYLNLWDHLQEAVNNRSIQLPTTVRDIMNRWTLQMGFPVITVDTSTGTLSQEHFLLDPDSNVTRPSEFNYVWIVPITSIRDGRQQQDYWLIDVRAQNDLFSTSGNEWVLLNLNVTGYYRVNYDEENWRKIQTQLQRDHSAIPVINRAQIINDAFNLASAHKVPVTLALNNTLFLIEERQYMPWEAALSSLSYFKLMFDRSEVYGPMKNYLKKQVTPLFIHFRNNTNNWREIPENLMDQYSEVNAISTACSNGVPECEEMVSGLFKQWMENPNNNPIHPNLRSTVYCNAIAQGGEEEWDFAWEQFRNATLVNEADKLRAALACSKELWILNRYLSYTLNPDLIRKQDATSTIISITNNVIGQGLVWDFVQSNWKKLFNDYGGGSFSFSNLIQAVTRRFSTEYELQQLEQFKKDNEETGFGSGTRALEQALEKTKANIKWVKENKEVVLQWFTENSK
Take `N#CCCCCCCCCC(=O)NO` [A1.015]: the IC50 was determined as 80.6 µM. With `O=C(CCOC(c1ccccc1)c1ccc(Br)cc1)NO` (stereo not shown) [A1.003], the IC50 was determined as 6.3 µM.

The same assay, now with this note: Table 3, starred values = ID50; read-out: ID50 APN (values marked with *).
Consider `CC1=C(C#N)C(=O)N(CCO)C(=O)/C1=C\c1ccc(-c2cc(Cl)ccc2Cl)o1` [A3.003], for which the IC50 turned out to be 1.2 µM. In the case of `O=C(CCNC(=O)c1ccccc1Br)N/N=C/c1ccco1` [A3.311], the IC50 was determined as 85.8 µM. Consider `CC(=O)Nc1cccc(C(=O)N/N=C/c2ccc(C)o2)c1` [A3.285], for which the IC50 worked out at 63.1 µM. On to `O=C(CNC(=O)c1cccc(F)c1)N/N=C/c1ccco1` [A3.333], for which the IC50 came to 155 µM. `COc1ccc(C(=O)NCC(=O)N/N=C/c2ccco2)cc1OC` [A3.288]: the IC50 came to 64.9 µM. For the compound `CN(C)c1ccc(C2NCCS2)cc1` (stereo not shown) [A3.338], the IC50 amounted to 230 µM.

The assay is the same for the next values; noted with them: Table 3, unstarred values; read-out: IC50APN.
In the case of `Cc1nc(N)sc1C(=O)N/N=C/c1ccco1` [A3.052], the IC50 was found to be 12.3 µM. In the case of `CCOC(=O)CCCCC(=O)c1c(C)n(C(=O)c2ccc(N3C(=O)CCC3=O)cc2)c(=O)n1C(=O)c1ccc(N2C(=O)CCC2=O)cc1` [A3.072], the IC50 came to 15.6 µM. With `CC(/C=N/NC(=O)C(O)c1ccccc1)=C\c1ccco1` (stereo not shown) [A3.219], the IC50 is 36.3 µM. Take `Cc1ccc(/C=N/NC(=O)COc2ccccc2C)o1` [A3.128]: the IC50 came to 22.2 µM. In the case of `O=C(N/N=C/c1cc(Br)c(O)c(Br)c1O)/C(=C\c1ccc2c(c1)OCO2)NC(=O)c1ccccc1` [A3.143], the IC50 was 23.6 µM.

For the compound `CCCOc1ccc(/C=C(\NC(=O)c2ccccc2)C(=O)N/N=C/c2ccco2)cc1` [A3.165], the IC50 turned out to be 27.3 µM. On to `O=C(N/N=C\c1ccco1)c1ccc(Br)cc1` [A3.148], for which the IC50 was found to be 24.5 µM. On the same count and under the same terms, next, `Cc1ccc(/C=N/NC(=O)COc2cccc(Cl)c2)o1` [A3.284]: 62.7 µM; `CCOC(=O)c1c(C)oc2c1c1c(c3ccccc32)OCN(C2CCS(=O)(=O)C2)C1` (stereo not shown) [A3.129]: 22.3 µM; `Cn1nc(-c2cccs2)nc2c(=O)n(C)c(=O)nc1-2` [A3.133]: 25 µM. Regarding `O=C(OCC1CCCO1)c1cc([N+](=O)[O-])cc([N+](=O)[O-])c1` (stereo not shown) [A3.231], the IC50 was 39.3 µM. For the compound `O=C1C(Cc2ccccc2)NC(=S)N1c1ccccc1` (stereo not shown) [A3.151], the IC50 was 26.1 µM. As for `CC(=O)C1C(c2ccc(N(C)C)cc2)C2C(=O)N(C3CCCCC3)C(=O)N2C1c1sccc1C` (stereo not shown) [A3.294], the IC50 was 68 µM. On to `O=C(N/N=C/c1ccco1)c1cc(-c2ccco2)n[nH]1` [A3.113], for which the IC50 is 20.9 µM. Take `CC1=C(C#N)C(=O)N(CC(C)O)C(=O)/C1=C/c1ccc(-c2cccc(Cl)c2C)o1` (stereo not shown) [A3.175]: the IC50 was determined as 28.6 µM.

Regarding `CCCOC(=O)c1cc(-c2ccc(/C=C3\C(=O)N(CCCO)C(=O)C(C#N)=C3C)o2)ccc1Cl` [A3.146], the IC50 was 23.8 µM. Consider `O=[N+]([O-])c1ccc(C2OCN3COCC23)cc1` (stereo not shown) [A3.287], for which the IC50 was 64.5 µM.

As to `O=C(CC(=O)N/N=C/c1ccco1)N/N=C/c1ccco1` [A3.196], the IC50 was 32.4 µM. The same measure, in the same setting: next, `Cc1cc(C)n(-c2nnc(N)nn2)n1` [A3.107]: 20.3 µM. Take `CN(C)c1ccc(C2C3C(=O)N(c4ccccc4)C(=O)C3ON2c2ccc(Cl)cc2)cc1` (stereo not shown) [A3.104]: the IC50 turned out to be 20 µM.

Take `O=C(N/N=C/C=C\c1ccco1)c1ccoc1` [A3.186]: the IC50 amounted to 30.1 µM. In the case of `C/C(=N\NC(=O)c1cc(-c2ccccc2)n[nH]1)c1ccco1` [A3.278], the IC50 was determined as 58.3 µM. Consider `Cc1cc(C(=O)N/N=C/c2ccco2)[nH]n1` [A3.255], for which the IC50 is 48.2 µM. Still for that read-out and setting: the figure for `COc1ccc(C(=O)N/N=C/c2ccco2)cc1` [A3.134] is 22.6 µM; for `Cc1ccc(OCC(=O)N/N=C/c2ccco2)cc1C` [A3.218] it is 36.3 µM.

Staying with this assay, now noted: Table 4, starred values = ID50; read-out: ID50 APN (values marked with *).
For the compound `Cc1ccc(OCC(=O)N/N=C/c2c(Br)cc(Br)c(O)c2Br)c(Br)c1` [A4.147], the IC50 was 54.2 µM.

`COc1ccc(/C=N/NC(=O)CNC(=O)c2cccc(F)c2)cc1[N+](=O)[O-]` [A4.167]: the IC50 turned out to be 80.4 µM.

As to `Cn1c(=O)c2c(ncn2CC(=O)N/N=C/C=C\c2ccco2)n(C)c1=O` [A4.166], the IC50 amounted to 79.8 µM.

Staying with this assay, now noted: Table 4, unstarred values; read-out: IC50APN.
`CCOc1ccc(Br)cc1C(=O)N/N=C/c1ccco1` [A4.079]: the IC50 turned out to be 25.8 µM. Turning to `COc1ccc(N(C(C)C(=O)N/N=C/c2ccco2)S(C)(=O)=O)cc1` (stereo not shown) [A4.136], the IC50 was determined as 47 µM. For `CC(NC(=O)C(=O)N/N=C\c1cc([N+](=O)[O-])ccc1O)c1ccccc1` (stereo not shown) [A4.018], the IC50 is 11.4 µM. With `COc1ccc(/C=N/NC(=O)C2=C(C)Nc3ccccc3S2)cc1Cn1nc(C)c(Br)c1C` [A4.002], the IC50 worked out at 4.8 µM. `Cc1cccc(C(=O)Nc2cccc(C(=O)N/N=C/c3ccc(C)o3)c2)c1` [A4.115]: the IC50 is 36.2 µM. For `COc1ccc(CCCC(=O)N/N=C/c2ccco2)cc1` [A4.071], the IC50 was 23.4 µM. On to `O=C(N/N=C/c1ccco1)c1cccc(I)c1` [A4.111], for which the IC50 stood at 34.7 µM.

Consider `O=C(COc1ccc2ccccc2c1Br)N/N=C/c1ccco1` [A4.137], for which the IC50 came to 47.3 µM. As for `O=C(N/N=C/c1ccco1)c1cc(C2CC2)n[nH]1` [A4.030], the IC50 came to 14.3 µM. Turning to `O=C(Cn1cnc2ccccc21)N/N=C/c1ccco1` [A4.128], the IC50 came out at 43.3 µM. Same read-out and setting: the figure for `CCc1ccc(OCC(=O)N/N=C\c2ccco2)c([N+](=O)[O-])c1` [A4.077] is 25.1 µM; for `C/C(=N\NC(=O)CNC(=O)/C=C/c1ccco1)c1ccc2ccccc2c1` [A4.019] it is 12 µM; for `CCN(CC)c1ccc(/C=N/NC(=O)CNC(=O)/C=C/c2ccco2)cc1` [A4.066] it is 22.8 µM. In the case of `C/C(CC1N=NC([N+](=O)[O-])=N1)=N/NC(=O)COc1ccccc1[N+](=O)[O-]` (stereo not shown) [A4.001], the IC50 was 3.4 µM.

Still in this assay, the particulars now being: Table 5, unstarred values; read-out: IC50APN.
Take `O=C(Nc1cccc(/N=C/c2cc(/N=N\c3ccccc3Cl)ccc2O)c1)c1ccco1` [A5.001]: the IC50 was 3.6 µM. `O=C(Nc1cccc(/N=C/c2cc(Br)cc(Br)c2O)c1)c1ccco1` [A5.003]: the IC50 is 8.2 µM.

Still in this assay, the particulars now being: Table 6; read-out: IC50APN.
In the case of `CC1CCCN(S(=O)(=O)c2ccc(NC(=O)/C=C/c3ccco3)cc2)C1` (stereo not shown) [A6.002], the IC50 came out at 8.4 µM.

For the compound `CCOC(=O)c1c(C)oc2c1c1c(c3ccccc32)OCN(C2CCS(=O)(=O)C2)C1` (stereo not shown) [A6.010], the IC50 was 22.3 µM. Same read-out and setting: the figure for `Cc1ccc(S(=O)(=O)CNC(=S)c2ccc3ccccc3c2)cc1` [A6.005] is 11.8 µM.

The assay is the same for the next values; noted with them: Table 8, starred values = ID50; read-out: ID50 APN (values marked with *).
As to `CCOC(=O)c1ncn(C(=O)OC)c1N` [A8.001], the IC50 was 0.9 µM.

The assay is the same for the next values; noted with them: Table 8, unstarred values; read-out: IC50APN.
For `C/C(Cn1nnc([N+](=O)[O-])n1)=N/NC(=O)COc1ccccc1[N+](=O)[O-]` [A8.002], the IC50 came out at 3.4 µM. On to `Cc1ccc(Cn2c(SCCC(=O)O)nc3c2c(=O)n(C)c(=O)n3C)cc1` [A8.025], for which the IC50 is 28 µM. Regarding `O=C1C(Cc2ccc(O)cc2)NC(=S)N1c1ccccc1` (stereo not shown) [A8.035], the IC50 is 66.6 µM. For the compound `COc1cc(C)[n+](OC(=O)N(C)C)c(C)c1` [A8.030], the IC50 turned out to be 42.4 µM.

`Cc1cccc(C)c1NC(=S)NC(=O)c1cccs1` [A8.010]: the IC50 worked out at 12.9 µM.

Still in this assay, the particulars now being: Table 9, starred values = ID50; read-out: ID50 APN (values marked with *).
Turning to `O=C(OCCN1CCCCC1)C1c2ccccc2Oc2ccccc21` [A9.117], the IC50 was 94.8 µM. With `COc1c(OCC(O)C(C)(C)O)ccc2c1N=C1OC=CC1C2OC` (stereo not shown) [A9.120], the IC50 amounted to 117 µM.

The assay is the same for the next values; noted with them: Table 9, unstarred values; read-out: IC50APN.
Regarding `COc1ccc(Cl)cc1C(=O)N/C(=C/c1ccco1)C(=O)N1CC2CC(C1)c1cccc(=O)n1C2` (stereo not shown) [A9.015], the IC50 was 8.1 µM. With `Cc1[nH]c2ccccc2c1C(c1cc(Cl)ccc1O)N1CCOCC1` (stereo not shown) [A9.025], the IC50 stood at 11.7 µM.

Turning to `Cc1ccc(C(=O)N/C(=C\c2ccco2)C(=O)N2CCOCC2)cc1C` [A9.073], the IC50 worked out at 28.8 µM.

Regarding `CC(=O)c1cccc(-c2ccc(/C=C3/C(=O)N(CCCO)C(=O)C(C#N)=C3C)o2)c1` [A9.042], the IC50 was determined as 18.2 µM. In the case of `O=C(CCCCCN1C(=O)c2cccc3cccc(c23)C1=O)NO` [A9.032], the IC50 stood at 14.1 µM.

The same assay, now with this note: Table 10; read-out: IC50APN.
For `O=C(N/N=C\c1ccco1)c1ccc(S(=O)(=O)N2CCCCCC2)cc1` [A10.002], the IC50 is 8 µM. Same read-out and setting: next, `Brc1cc2c(cc1Br)OCCOCCOCCOCCOCCO2` [A10.001]: 0.7 µM.

Staying with this assay, now noted: Table 11; read-out: IC50APN.
`N#Cc1cc(N2CC3CC(C2)c2cccc(=O)n2C3)c([N+](=O)[O-])cc1C#N` (stereo not shown) [A11.004]: the IC50 is 8.9 µM. As to `O=[N+]([O-])c1ncn(CN2CCOCC2)n1` [A11.026], the IC50 came out at 36.8 µM. As for `COC(=O)c1cc(C(=O)NC2CCSC2=O)cc([N+](=O)[O-])c1` (stereo not shown) [A11.036], the IC50 came to 238 µM.

Turning to `O=C(N/N=C/c1cc(Cl)cc([N+](=O)[O-])c1O)c1ccccc1O` [A11.039], the IC50 was found to be 5.8 µM.

The assay is the same for the next values; noted with them: Table 12; read-out: IC50APN.
Regarding `COC(=O)c1cccc(-c2ccc(/C=C3\C(=O)N(CCO)C(=O)C(C#N)=C3C)o2)c1` [A12.007], the IC50 came out at 6.3 µM. In the case of `O=C(COc1ccc(Br)cc1)NO` [A12.009], the IC50 is 6.4 µM. As to `CC1=C(C#N)C(=O)N(CC(C)O)C(=O)/C1=C/c1ccc(-c2ccc(Br)cc2)o1` (stereo not shown) [A12.058], the IC50 is 47.2 µM. Consider `O=C(N/C(=C\c1ccco1)C(=O)N1CCC(O)CC1)c1ccccc1` [A12.038], for which the IC50 stood at 21.1 µM.

The same assay, now with this note: Table 13; read-out: IC50APN.
Consider `COC(=O)c1ccc(-c2ccc(/C=C3\C(=O)N(CCCO)C(=O)C(C#N)=C3C)o2)cc1` [A13.003], for which the IC50 stood at 5 µM.
